According to US8969343B2, “Histone demethylase inhibitors” (priority 2012, dated 2015):

The compounds below were run against T1, JMJD2C (Homo sapiens, UniProt Q9H3R0) (assay: JMJD2C in vitro enzyme inhibition assay (TR-FRET)). Conditions: 0.3 nM JMJD2C, 300 nM H3K9me3-biotin peptide, 2 μM alpha-ketoglutaric acid.
T1 sequence (Q9H3R0 2-372): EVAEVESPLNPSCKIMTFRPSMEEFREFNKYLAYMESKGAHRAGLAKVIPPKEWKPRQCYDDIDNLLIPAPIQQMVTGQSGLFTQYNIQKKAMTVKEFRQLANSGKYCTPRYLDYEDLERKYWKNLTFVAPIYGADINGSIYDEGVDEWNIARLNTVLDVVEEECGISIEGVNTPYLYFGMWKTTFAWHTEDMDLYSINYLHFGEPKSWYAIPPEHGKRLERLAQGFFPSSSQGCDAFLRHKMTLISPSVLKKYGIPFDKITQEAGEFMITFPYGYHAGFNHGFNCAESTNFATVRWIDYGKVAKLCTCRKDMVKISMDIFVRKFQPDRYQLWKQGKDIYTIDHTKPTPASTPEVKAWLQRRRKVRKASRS
Format: biochemical
Description: This assay determines the ability of a test compound to inhibit Jarid1A, Jarid1B, and JMJD2C demethylase activity.
Reaction product was determined quantitatively by TR-FRET after the addition of detection reagent Phycolink Streptavidin-allophycocyanin (Prozyme) and Europium-anti-di-methylated histone H3 lysine 9 (H3K9me2) antibody (PerkinElmer) in the presence of 5 mM EDTA in LANCE detection buffer (PerkinElmer) at a final concentration of 50 nM and 1 nM, respectively.
The assay reaction was initiated by the following: 2 μl of the mixture of 900 nM H3K9me3-biotin labeled peptide and 6 μM alpha-ketoglutaric acid with 2 μl of 11-point serial diluted inhibitor in 3% DMSO were added to each well of the plate, followed by the addition of 2 μl of 0.9 nM JMJD2C to initiate the reaction. The reaction mixture was incubated at room temperature for 30 minutes, and terminated by the addition of 6 μl of 5 mM EDTA in LANCE detection buffer containing 100 nM Phycolink Streptavidin-allophycocyanin and 2 nM Europium-anti-H3K9me2 antibody.
`Cn1nc(Nc2cnccc2C(=O)O)c2cc(Cl)ccc21` [Example 4] showed an IC50 of 100 to 1000 nM. `Cc1ccc2c(Nc3cnccc3C(=O)O)nn(C)c2c1` [Example 5, 3-[(1,6-dimethyl-1H-indazol-3-yl)amino]pyridine-4-carboxylic acid] gave an IC50 of 100 to 1000 nM. Compound `COc1ccc2c(Nc3cnccc3C(=O)O)nn(C)c2c1` [Example 8, 3-[(6-methoxy-1-methyl-1H-indazol-3-yl)amino]pyridine-4-carboxylic acid] has an IC50 of 100 to 1000 nM. `CCCn1nc(Nc2cnccc2C(=O)O)c2ccccc21` [Example 9, 3-[(1-propyl-1H-indazol-3-yl)amino]pyridine-4-carboxylic acid] showed an IC50 of 100 to 1000 nM. For `COCCn1nc(Nc2cnccc2C(=O)O)c2ccccc21` [Example 10, 3-{[1-(2-methoxyethyl)-1H-indazol-3-yl]amino}pyridine-4-carboxylic acid], the IC50 was 100 to 1000 nM. Work on `CCCn1nc(Nc2cnccc2C(=O)O)c2cc(F)ccc21` [Example 15, 3-[(5-fluoro-1-propyl-1H-indazol-3-yl)amino]pyridine-4-carboxylic acid] yielded an IC50 of 100 to 1000 nM. With `O=C(O)c1ccncc1Nc1nn(CC2CC2)c2ccc(F)cc12` [Example 16, 3-{[1-(cyclopropylmethyl)-5-fluoro-1H-indazol-3-yl]amino}pyridine-4-carboxylic acid] the IC50 was 100 to 1000 nM. With `CCCCCn1nc(Nc2cnccc2C(=O)O)c2cc(F)ccc21` [Example 18, 3-[(5-fluoro-1-pentyl-1H-indazol-3-yl)amino]pyridine-4-carboxylic acid] the IC50 was 100 to 1000 nM. Work on `O=C(O)c1ccncc1Nc1nn(CCc2ccccc2)c2ccc(F)cc12` [Example 19, 3-{[5-fluoro-1-(2-phenethyl)-1H-indazol-3-yl]amino}pyridine-4-carboxylic acid] yielded an IC50 of 100 to 1000 nM. `O=C(O)c1ccncc1Nc1nn(CC2CCCO2)c2ccc(F)cc12` (centres unmarked) [Example 21, 3-{[5-fluoro-1-(tetrahydrofuran-2-ylmethyl)-1H-indazol-3-yl]amino}pyridine-4-carboxylic acid] showed an IC50 of 100 to 1000 nM. `O=C(O)c1ccncc1Nc1nn(CC(F)(F)F)c2ccc(F)cc12` [Example 23, 3-{[5-fluoro-1-(2,2,2-trifluoroethyl)-1H-indazol-3-yl]amino}pyridine-4-carboxylic acid] gave an IC50 of 100 to 1000 nM. Compound `CC(C)Cn1nc(Nc2cnccc2C(=O)O)c2cc(F)ccc21` [Example 25, 3-{[5-fluoro-1-(2-methylpropyl)-1H-indazol-3-yl]amino}pyridine-4-carboxylic acid] has an IC50 of 100 to 1000 nM. For `CCC(C)n1nc(Nc2cnccc2C(=O)O)c2cc(F)ccc21` (centres unmarked) [Example 26, 3-{[5-fluoro-1-(butan-2-yl)-1H-indazol-3-yl]amino}pyridine-4-carboxylic acid], the IC50 was 100 to 1000 nM. In the case of `O=C(O)c1ccncc1Nc1nn(CC2CCC2)c2ccc(F)cc12` [Example 28, 3-{[1-(cyclobutylmethyl)-5-fluoro-1H-indazol-3-yl]amino}pyridine-4-carboxylic acid], the IC50 is reported as 100 to 1000 nM. For `O=C(O)c1ccncc1Nc1nn(C2CCCC2)c2ccc(F)cc12` [Example 29, 3-[(1-cyclopentyl-5-fluoro-1H-indazol-3-yl)amino]pyridine-4-carboxylic acid], the IC50 was 100 to 1000 nM. `O=C(O)c1ccncc1Nc1nn(CC2CCCC2)c2ccc(F)cc12` [Example 30, 3-{[1-(cyclopentylmethyl)-5-fluoro-1H-indazol-3-yl]amino}pyridine-4-carboxylic acid] showed an IC50 of 100 to 1000 nM. Work on `O=C(O)c1ccncc1Nc1nn(CCC2CC2)c2ccc(F)cc12` [Example 31, 3-{[1-(cyclopropylethyl)-5-fluoro-1H-indazol-3-yl]amino}pyridine-4-carboxylic acid] yielded an IC50 of 100 to 1000 nM. `O=C(O)c1ccncc1Nc1nn(CCC(F)(F)F)c2ccc(F)cc12` [Example 32, 3-{[5-fluoro-1-(3,3,3-trifluoropropyl)-1H-indazol-3-yl]amino}pyridine-4-carboxylic acid] showed an IC50 of 100 to 1000 nM. `CCCn1nc(Nc2cnccc2C(=O)O)c2cc(Cl)ccc21` [Example 33, 3-[(5-chloro-1-propyl-1H-indazol-3-yl)amino]pyridine-4-carboxylic acid] was tested, and the IC50 was 100 to 1000 nM. With `O=C(O)c1ccncc1Nc1nn(CC2CC2)c2ccc(Cl)cc12` [Example 34, 3-{[5-chloro-1-(cyclopropylmethyl)-1H-indazol-3-yl]amino}pyridine-4-carboxylic acid] the IC50 was 100 to 1000 nM. `O=C(O)c1ccncc1Nc1nn(CCC(F)(F)F)c2ccc(Cl)cc12` [Example 35, 3-{[5-chloro-1-(3,3,3-trifluoropropyl)-1H-indazol-3-yl]amino}pyridine-4-carboxylic acid] was tested, and the IC50 was 100 to 1000 nM. Compound `CCn1nc(Nc2cnccc2C(=O)O)c2cc(C)ccc21` [Example 36, 3-[(1-ethyl-5-methyl-1H-indazol-3-yl)amino]pyridine-4-carboxylic acid] has an IC50 of 100 to 1000 nM. Work on `Cc1ccc2c(c1)c(Nc1cnccc1C(=O)O)nn2CC1CC1` [Example 37, 3-{[1-(cyclopropylmethyl)-5-methyl-1H-indazol-3-yl]amino}pyridine-4-carboxylic acid] yielded an IC50 of 100 to 1000 nM. `CCCn1nc(Nc2cnccc2C(=O)O)c2cc(C)ccc21` [Example 38, 3-[(5-methyl-1-propyl-1H-indazol-3-yl)amino]pyridine-4-carboxylic acid] gave an IC50 of 100 to 1000 nM. In the case of `Cc1ccc2c(c1)c(Nc1cnccc1C(=O)O)nn2CCC(F)(F)F` [Example 39, 3-{[5-methyl-1-(3,3,3-trifluoropropyl)-1H-indazol-3-yl]amino}pyridine-4-carboxylic acid], the IC50 is reported as 100 to 1000 nM. Work on `Cn1cc(Nc2cnccc2C(=O)O)c2cccnc21` [Example 52, 3-[(1-methyl-1H-pyrrolo[2,3-b]pyridine-3-yl)amino]pyridine-4-carboxylic acid] yielded an IC50 of 100 to 1000 nM. With `CCCn1cc(Nc2cnccc2C(=O)O)c2cc(F)ccc21` [Example 57, 3-[(5-fluoro-1-propyl-1H-indol-3-yl)amino]pyridine-4-carboxylic acid] the IC50 was 100 to 1000 nM. `O=C(O)c1ccncc1Nc1cn(CCC(F)(F)F)c2ccc(Cl)cc12` [Example 59, 3-{[5-chloro-1-(3,3,3-trifluoropropyl)-1H-indol-3-yl]amino}pyridine-4-carboxylic acid] gave an IC50 of 100 to 1000 nM. Compound `O=C(O)c1ccncc1Nc1nn(C2CCOCC2)c2ccc(F)cc12` [Example 62, 3-{[5-fluoro-1-(tetrahydro-2H-pyran-4-yl)-1H-indazol-3-yl]amino}pyridine-4-carboxylic acid] has an IC50 of 100 to 1000 nM. With `O=C(O)c1ccncc1Nc1nn(C2CCCOC2)c2ccc(F)cc12` (centres unmarked) [Example 63, 3-{[5-fluoro-1-(tetrahydro-2H-pyran-3-yl)-1H-indazol-3-yl]amino}pyridine-4-carboxylic acid] the IC50 was 100 to 1000 nM. `O=C(O)c1ccncc1Nc1cn(C2CCOC2)c2ccc(F)cc12` (centres unmarked) [Example 68, 3-{[5-fluoro-1-(tetrahydrofuran-3-yl)-1H-indol-3-yl]amino}pyridine-4-carboxylic acid] was tested, and the IC50 was 100 to 1000 nM. With `O=C(O)c1ccncc1Nc1nn(C2CCOC2)c2ccc(Cl)cc12` (centres unmarked) [Example 69, 3-{[5-chloro-1-(tetrahydrofuran-3-yl)-1H-indazol-3-yl]amino}pyridine-4-carboxylic acid] the IC50 was 100 to 1000 nM. `N#CNC(=O)c1ccncc1Nc1nn([C@H]2CCOC2)c2ccc(F)cc12` [Example 70, N-cyano-3-({5-fluoro-1-[(3S)-tetrahydrofuran-3-yl]-1H-indazol-3-yl}amino)pyridine-4-carboxamide] was tested, and the IC50 was 1000 to 10000 nM. `N#CNC(=O)c1ccncc1Nc1nn(CCN2CCC(F)(F)C2)c2ccc(F)cc12` [Example 72, N-cyano-3-({1-[2-(3,3-difluoropyrrolidin-1 yl)ethyl]-5-fluoro-1H-indazol-3-yl}amino)pyridine-4-carboxamide] gave an IC50 of 1000 to 10000 nM. In the case of `N#CNC(=O)c1ccncc1Nc1nn(CCN2CCC(F)(F)CC2)c2ccc(F)cc12` [Example 74, N-cyano-3-({1-[2-(4,4-difluoropiperidin-1 yl)ethyl]-5-fluoro-1H-indazol-3-yl}amino)pyridine-4-carboxamide], the IC50 is reported as 1000 to 10000 nM. `CC(C)Cn1nc(Nc2cnccc2C(=O)NC#N)c2cc(F)ccc21` [Example 75, N-cyano-3-{[5-fluoro-1-(2-methylpropyl)-1H-indazol-3-yl]amino}pyridine-4-carboxamide] was tested, and the IC50 was 1000 to 10000 nM. Compound `CN(C)CCCCn1nc(Nc2cnccc2C(=O)NC#N)c2cc(F)ccc21` [Example 76, N-cyano-3-({1-[4-(dimethylamino)butyl]-5-fluoro-1H-indazol-3-yl}amino)pyridine-4-carboxamide] has an IC50 of 100 to 1000 nM. In the case of `N#CNC(=O)c1ccncc1Nc1nn(CCN2CCCC2)c2ccc(Cl)cc12` [Example 79, N-cyano-3-({5-chloro-1-[2-(pyrrolidin-1-yl)ethyl]-1H-indazol-3-yl}amino)pyridine-4-carboxamide], the IC50 is reported as 100 to 1000 nM.
